Test results: patent US20170326188A1, “USES OF PORIA COCOS EPIDERMIS EXTRACT, PORICOIC ACID A, AND PORICOIC ACID B IN REGULATING BLOOD GLUCOSE LEVEL” (SINPHAR PHARMACEUTICAL CO., LTD., priority 2016, published 2017)

Legend:
[1] = test system: mouse adipocytes (3T3-L1); test: Glucose oxidase assay of glucose uptake capability of adipocytes; format: cell-based; conditions: 2 hours; for relative glucose uptake capability of cells (glucose consumption) compared to the control group: 3T3-L1 cells, 0.1, 1 or 10 μg/ml, BSA-DMEM medium containing 500 μg/ml glucose
Description: The differentiated mouse myocytes (C2C12, purchased from ATCC) and adipocytes (3T3-L1, purchased from ATCC) were cultivated in a Dulbecco's modified Eagle's medium (DMEM) containing 2% bovine serum albumin (BSA) but serum free for 16 hours respectively. Then, the cells were washed with Dulbecco's phosphate-buffered saline (D-PBS), and medium was replaced with a 0.2% BSA-DMEM medium containing 500 μg/ml glucose. The cells thus provided were used in the following experiments. 3T3-L1 cells provided by [Preparation Examples] were divided into 5 groups and were respectively cultivated with the mediums of Groups I to V described in Example 1 (1-1) for 2 hours. Then, the content of glucose in the medium of each group were determined by a glucose oxidase assay to measure the level of glucose consumption of each group (representing the glucose uptake capability of cells). Finally, the results of the control group (i.e., cells being cultivated with the medium of Group I) was served as a basis to calculate the relative glucose uptake capabilities of other groups. 3T3-L1 cells provided by [Preparation Examples] were divided into 8 groups and were respectively cultivated with the mediums of Groups i to v as described in Example 2 (2-1) for 2 hours. Then, the content of glucose in the medium of each group was determined by a glucose oxidase assay to measure the level of glucose consumption of each group (representing the glucose uptake capability of cells). Finally, the results of the control group (i.e., cells being cultivated with the medium of Group i) was served as a basis to calculate the relative glucose uptake capabilities of other groups. FIG. 4A comprises the results of the control group, the positive control group (i.e., cells being cultivated with the medium of Group ii), and the groups being treated with poricoic acid A (i.e., cells being cultivated with the medium of Group iii, iv or v which contains poricoic acid A). FIG. 4B comprises the results of the control group, the positive control group, and the group being treated with poricoic acid B (i.e., cells being cultivated with the medium of Group iii, iv or v which contains poricoic acid B).

mouse myocytes (C2C12) = test: Glucose oxidase assay of glucose uptake capability of myocytes; format: cell-based; conditions: C2C12 cells, 0.1, 1 or 10 μg/ml, 2 hours; for relative glucose uptake capability of cells (glucose consumption) compared to the control group: BSA-DMEM medium containing 500 μg/ml glucose
Description: The differentiated mouse myocytes (C2C12, purchased from ATCC) and adipocytes (3T3-L1, purchased from ATCC) were cultivated in a Dulbecco's modified Eagle's medium (DMEM) containing 2% bovine serum albumin (BSA) but serum free for 16 hours respectively. Then, the cells were washed with Dulbecco's phosphate-buffered saline (D-PBS), and medium was replaced with a 0.2% BSA-DMEM medium containing 500 μg/ml glucose. The cells thus provided were used in the following experiments. C2C12 cells provided by [Preparation Examples] were divided into 5 groups and were respectively cultivated with the following mediums for 2 hours: • 1. Group I: a BSA-DMEM medium containing 500 μg/ml glucose. • 2. Group II: a BSA-DMEM medium containing 500 μg/ml glucose and 100 nM insulin. • 3. Group III: a BSA-DMEM medium containing 500 μg/ml glucose and 0.1 μg/ml Poria cocos epidermis extract provided by [Preparation Example A-2]. • 4. Group IV: a BSA-DMEM medium containing 500 μg/ml glucose and 1 μg/ml Poria cocos epidermis extract provided by [Preparation Example A-2]. • 5. Group V: a BSA-DMEM medium containing 500 μg/ml glucose and 10 μg/ml Poria cocos epidermis extract provided by [Preparation Example A-2]. Thereafter, the content of glucose in the medium of each group was determined by a glucose oxidase assay to measure the level of glucose consumption (representing the glucose uptake capability of cells) of each group. Finally, the results of the control group (i.e., cells being cultivated with the medium of Group I) was served as a basis to calculate the relative glucose uptake capabilities of other groups. C2C12 cells provided by [Preparation Examples] were divided into 8 groups and were respectively cultivated with the following mediums for 2 hours: • 1. Group i: a BSA-DMEM medium containing 500 μg/ml glucose. • 2. […] Then, the content of glucose in the medium of each group was determined by a glucose oxidase assay to measure the level of glucose consumption of each group (representing the glucose uptake capability of cells). […]

| Structure (SMILES) | increment in glucose uptake capability compared to the control group, medium dosage group ([1]; 3T3-L1 cells, 1 μg/ml) | increment in glucose uptake capability compared to the control group, high dosage group ([1]; 3T3-L1 cells, 10 μg/ml) | relative glucose uptake capability of cells (glucose consumption) compared to the control group [1] | relative glucose uptake capability of cells (glucose consumption) compared to the control group (mouse myocytes (C2C12)) | glucose uptake capability compared to the positive control group (mouse myocytes (C2C12); positive control 100 nM insulin) |
| --- | --- | --- | --- | --- | --- |
| C=C(CC[C@@H](C(=O)O)[C@H]1[C@H](O)C[C@@]2(C)C3=CC[C@@H](C(=C)C)[C@](C)(CCC(=O)O)C3=CC[C@]12C)C(C)C [poricoic acid A, Poricoic acid A] | significant | significant | exhibited an increment in the glucose uptake capabilities | significantly increased | equivalent to that of the positive control group |
| C=C(C)[C@@H]1CC=C2C(=CC[C@]3(C)[C@@H]([C@@H](CCC=C(C)C)C(=O)O)[C@H](O)C[C@@]23C)[C@@]1(C)CCC(=O)O [poricoic acid B, Poricoic acid B] | – | – | significantly increased | significantly increased | – |
